{
  "source": "patent US20030144271A1",
  "about": "“Methods for the treatment of substance abuse” (priority 2000, published 2003)",
  "key": {"[1]": {"test_system": "alcohol / volatile inhalant dependent patients", "experiment": "Open Alc/Inhalant therapeutic (N + A + CCB) drug dependence trial (Example 7, Table 2)", "type": "in vivo, human", "settings": "A666 × 3 mg/d; for Key Parameters: Audit Score: score out of 40; for Key Parameters: Abstinence / Key Parameters: Craving / Key Parameters: Relapse: scale 0-10", "method": "(§1) (v) Scoring of key parameters was based on questionaries completed by the subject. For the audit score, an initial base-line questionnaire preceding treatment and subsequently, a similar weekly questionnaire, following each week of treatment was conducted by the trial clinician and trial subject. The subject's answers were assigned a value and the score for all 10 questions totalled (out of 40). A total of 13+ is indicated as alcohol dependent, 8+ as a hazardous drinker and less than 8 a safe drinker, with 0 indicating abstinence. Levels of Craving, tendency to Relapse and degree of Abstinence were rated by the subject on a scale of 0-10, with 0,0 indicating absence of craving and relapse respectively, and 10 indicating total abstinence from alcohol and volatile inhalant.\nTwo patients were treated in an open trial with a daily dose of naltrexone, acamprosate and verapamil. Key parameters were evaluated as per Example 6. The results are presented in Table 2, depicting treatment duration, patient characteristics, key parameters and improved parameters and side-effects."}, "[2]": {"test_system": "detoxified opiate subjects", "experiment": "Double-blind placebo-controlled cross-over trial in detoxified opiate subjects (Table 1A, comparative)", "type": "in vivo, human", "settings": "weekly; for Abstinence: scale 0-10, 10 = total abstinence", "from_the_text": "(ii) To permit their optimal comparison by the same test subject, treatments A & C were both given for the same and longest length of time available before the trial was terminated. […] The actual drug components of treatments A, B and C for each trial subject, and the duration of each treatment are also shown in Table 1 in each case.\nas §1, with “For the audit score, an initial base-line questionnaire preceding treatment and subsequently, a similar weekly questionnaire, following each week of treatment was conducted by the trial clinician and trial subject.” left out\n[…] […] However, many opiate (or other substance) addicts also have a secondary addiction to alcohol or use alcohol excessively when they are unable to obtain the opiate of addiction. The present invention can also be used to treat such multi-substance addicted subjects."}, "[3]": {"test_system": "detoxified alcoholic patients", "experiment": "N-of-1 double-blind placebo-controlled cross-over clinical trial in detoxified alcoholic patients (Example 6, Table 1)", "type": "in vivo, human", "settings": "5 mg, in two subjects", "method": "The patient characteristics, their randomised active and control treatments and their outcomes, and the key and ancillary parameters on which the progressive comparative weekly safeties and efficacies of the active and control treatments were determined for each of the 6 double-blind trial subjects are all shown in Table 1.\n(i) Each trial subject received sequentially 3 different but operationally-related individual treatments, each on an oral once daily basis, labelled, for convenience, A (which may randomly be an active or control treatment), B (wash-out) and C (which may also randomly be a control or […])\n(ii) To permit their optimal comparison by the same test subject, treatments A & C were both given for the same and longest length of time available before the trial was terminated. Patient and clinician bias in interpretation was minimised or excluded by giving these treatments on a randomised double-blind basis which ensured that neither knew if the active or control treatment was given first or last. Thus sometimes, labelled treatment A or C was the active or control treatment and vice versa. The actual drug components of treatments A, B and C for each trial subject, and the duration of each treatment are also shown in Table 1 in each case. […]"}, "[4]": {"settings": "in vivo; cited from earlier work"}},
  "note": "Several values for one entry are separate records, joined by “and”; a condition that tells them apart may be missing. Equal values may be shown once. Entries after “also recorded” stand apart in the source; their conditions may differ.",
  "data": [
    {"smiles": "CC(=O)NCCCS(=O)(=O)O", "note": "[A666 × 3]", "values": [
      {"measurement": "Key Parameters: Audit Score", "setting": "[1]; subject 1 (Alc 20+ Units/d), 01/07/00", "result": 37},
      {"measurement": "Improved (1) Ancillary Parameters: Energy", "setting": "[1]; subject 1, 01/07/00", "result": 0},
      {"measurement": "Improved (1) Ancillary Parameters: In-Control", "setting": "[1]; subject 1, 01/07/00", "result": 0},
      {"measurement": "Improved (1) Ancillary Parameters: Thinking", "setting": "[1]; subject 1, 01/07/00", "result": 0},
      {"measurement": "Patient's View", "setting": "[1]; subject 1, 01/07/00", "result": 0},
      {"measurement": "Side-effects", "setting": "[1]; subject 1, 01/07/00", "result": "Nil"},
      {"measurement": "Key Parameters: Abstinence", "setting": "[1]; subject 1, 01/07/00", "result": 0},
      {"measurement": "Key Parameters: Craving", "setting": "[1]; subject 1, 01/07/00", "result": 8},
      {"measurement": "Key Parameters: Relapse", "setting": "[1]; subject 1, 01/07/00", "result": 10},
      {"measurement": "Improved (1) Ancillary Parameters: Energy", "setting": "[1]; subject 1, 09/07/00", "result": 0},
      {"measurement": "Improved (1) Ancillary Parameters: Thinking", "setting": "[1]; subject 1, 09/07/00", "result": 0},
      {"measurement": "Patient's View", "setting": "[1]; subject 1, 09/07/00", "result": "Progress+"},
      {"measurement": "Side-effects", "setting": "[1]; subject 1, 09/07/00", "result": "Nil"},
      {"measurement": "Key Parameters: Abstinence", "setting": "[1]; subject 1, 09/07/00", "result": 1},
      {"measurement": "Key Parameters: Craving", "setting": "[1]; subject 1, 09/07/00", "result": 7},
      {"measurement": "Key Parameters: Relapse", "setting": "[1]; subject 1, 09/07/00", "result": 8},
      {"measurement": "Key Parameters: Audit Score", "setting": "[1]; subject 1, 09/07/00", "result": 37}
    ]},
    {"smiles": "O=C1CC[C@@]2(O)[C@H]3Cc4ccc(O)c5c4[C@@]2(CCN3CC2CC2)[C@H]1O5", "note": "[N25 + Pl]", "values": [
      {"measurement": "Relapse", "setting": "[2]; scale 0-10, 0 = absence, listed as N5 + Pl", "result": 0},
      {"measurement": "Abstinence", "setting": "[2]; listed as N5 + Pl", "result": 10},
      {"measurement": "Patient's View", "setting": "[2]", "result": "Progress 0"},
      {"measurement": "Patient's View", "setting": "[2]; assessment date 03/11/00", "result": "Progress +/−"},
      {"measurement": "Patient's View", "setting": "[2]; assessment date 15/11/00", "result": "Progress +"},
      {"measurement": "Patient's View", "setting": "[2]; listed as N5 + Pl", "result": "Progress ++"},
      {"measurement": "Patient's View", "setting": "[2]; listed as NAll25 + Pl, assessment date 03/11/00", "result": "Progress+/−"},
      {"measurement": "Patient's View", "setting": "[2]; listed as NAll25 + Pl, assessment date 15/11/00", "result": "Progress+"}
    ]},
    {"smiles": "O=C1CC[C@@]2(O)[C@H]3Cc4ccc(O)c5c4[C@@]2(CCN3CC2CC2)[C@H]1O5", "note": "[N25, Naltrexone]", "values": [
      {"measurement": "Abstinence", "setting": "[2]", "result": "10 and 8"},
      {"measurement": "Patient's View", "setting": "[2]", "result": "Progress+; also recorded: Progress++; also recorded: Progress+++"}
    ]},
    {"smiles": "CCOC(=O)C1=C(COCCN)NC(C)=C(C(=O)OC)C1c1ccccc1Cl", "note": "(centres unmarked) [amlodipine]", "values": [
      {"measurement": "Side-effects of the administered dose", "setting": "[3]", "result": "a number of initial transient side-effects"},
      {"measurement": "time to reach a plateau plasma concentration", "setting": "[4]", "result": "5 to 10", "unit": "days"}
    ]}
  ]
}
